# Biological target: Cyclin-dependent kinase 1 (Homo sapiens, UniProt P06493)
# Test: Inhibition of CDK1
# Sequence of Cyclin-dependent kinase 1 (P06493 whole entry): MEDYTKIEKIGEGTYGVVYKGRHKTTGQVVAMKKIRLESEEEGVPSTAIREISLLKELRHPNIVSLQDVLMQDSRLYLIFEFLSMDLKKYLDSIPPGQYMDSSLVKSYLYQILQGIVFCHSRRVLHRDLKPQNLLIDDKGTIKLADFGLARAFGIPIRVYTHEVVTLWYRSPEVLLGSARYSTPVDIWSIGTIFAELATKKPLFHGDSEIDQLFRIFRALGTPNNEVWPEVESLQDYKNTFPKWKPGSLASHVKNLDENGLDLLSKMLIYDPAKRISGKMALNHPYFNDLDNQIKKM
row,SMILES,IC50 [nM]
1,Cc1cc(Cl)cc2c1NC(=O)C2C=Nc1ccc(S(N)(=O)=O)cc1 (stereo not drawn),> 1000
2,Cc1cccc2c1NC(=O)C2C=Nc1ccc(S(N)(=O)=O)cc1 (stereo not drawn),> 1000
3,Cc1cc(C)c2c(c1)C(C=Nc1ccc(S(N)(=O)=O)cc1)C(=O)N2 (stereo not drawn),> 1000

# From BindingDB's records for doi:10.1021/jm070654j (University of Zurich, 2008)
